Compound | melting point
O=c1n(-c2ccccc2)nc2n1-c1ccccc1Oc1ccccc1-2 | 176 to 177 °C
O=C(O)c1ccc(-n2nc(-c3ccccc3O)nc2-c2ccccc2O)cc1 | 255 to 262 °C
CC(=O)Nc1cc([N+](=O)[O-])cc([N+](=O)[O-])c1 | 189 to 191 °C
CC(C)(C)OC(=O)Nc1ccc(-c2ccc(F)cc2)cc1NC(=O)CC(=O)c1cccc(C#N)c1 | 177 to 179 °C
CCCCOC(=O)c1ccc(C#N)cc1 | 54 to 55 °C
CCc1noc(-c2cn(-c3ccccc3OCc3ccc(Cl)cc3)cn2)n1 | 88 to 89 °C
O=C1c2c(Cl)cccc2-n2cnc(-c3noc(CN4Cc5ccccc5C4)n3)c2[C@@H]2CCN12 | 218 to 222 °C
CC(C)n1nc(-c2cc(N)cnc2-c2ccccc2)ccc1=O | 147 to 148 °C
CN1CCN(C(=O)OC2c3ccccc3C(=O)N2c2ccc3cccnc3n2)CC1 (configuration not stated) | 183 °C
CCOC(=O)c1cnn2c1c(N)nc1ccccc12 | 235 to 237 °C
CN1Cc2c(C#CC(O)(C3CC3)C3CC3)ncn2-c2cccc(Cl)c2C1=O | 179 to 181 °C
CCOC(=O)CCCCn1c(C(=O)NCc2nnc(C)n2-c2sc(CC)cc2C(=O)c2ccccc2Cl)cc2ccccc21 | 85 to 87 °C
COCc1c(C(=O)OCCO)ncc2[nH]c3ccc(OCc4ccccc4)cc3c12 | 165 to 167 °C
CN(C)c1cc2nc(C(C)(C)C)sc2cc1[N+](=O)[O-] | 65 to 68 °C
CCCCc1nc(Cl)c(CC(=O)O)n1Cc1ccc(NC(=O)c2ccccc2C(=O)O)cc1 | 170 to 175 °C
Cc1cc(-c2ccc(Cl)cc2)nc2c(-c3nc(-c4cccc(S(N)(=O)=O)c4)no3)cnn12 | 275 °C
Fc1cccc(Cl)c1COc1cc(Cl)cnc1NC(=S)Nc1ccc(Cl)cc1 | 158 to 160 °C
Cc1nc(C)n(-c2cc([C@@H]3C[C@H]3c3nc4ccccc4n3C)nc(N)n2)n1 (relative stereo) | 120 to 122 °C
CCC(=O)NCCOc1ccccc1 | 61.5 to 64 °C
CC(=O)NC(=O)c1cn(Cc2ccccc2)nc1OCc1ccc(OCc2nc(-c3ccco3)oc2C)cc1 | 193 to 194 °C

Compound | melting point
Cc1ccc(Oc2ccc(-c3cccs3)cc2O)c(O)c1 | 91 to 92 °C
OCc1ccc(/C=C/c2ccncc2)nc1 | > 199 °C
COc1cc(OCC(=O)O)c(C)cc1SCc1ccc(-c2cccc(OC(F)(F)F)c2)cc1 | 137 °C
COc1ccc(-c2c(C=O)cc(OC)c(OC)c2OC)c(C=O)c1OS(C)(=O)=O | 130 to 131 °C
N#CCCn1cccc1-c1ccc2cnc(Nc3cccc(N4CCCC4=O)c3)nn12 | 60 to 67 °C
O=C(Nc1ncnc2c1ncn2CC(O)CF)c1ccccc1 (racemic) | 197 °C
COc1ccc(-c2ccsc2)c2c1c(CCN(C)C)cn2C | 120 to 122 °C
Cc1cncn1CC#Cc1cc(CN2CCOCC2)cc2c(=O)c(C(=O)NCc3ccc(Cl)cc3)cn(C)c12 | 149 to 152 °C
Cc1cccc(C)c1N1CCCN(c2c(C)cccc2C)C1=N | 68 to 71 °C
Cc1cc(SC(C)C)c(NC(=O)CSc2nc3ccccc3o2)c(SC(C)C)n1 | 151 to 152 °C
CC(C)(CCP(=O)(O)O)c1ccc(O)cc1 | 192 to 195 °C
CCN(CC)C(=O)n1c(C(=O)C(C)(C)c2ccc(Cl)cc2)cc2cc(OC)ccc21 | 172 to 175 °C
CC(=O)SCC(Cc1ccccc1)C(=O)Nc1ccc(Cl)c(C(=O)O)c1 (configuration not stated) | 163 to 165 °C
O=C1NC(=O)C(Nc2ccc(Br)c3ccccc23)S1 (configuration not stated) | 199 to 200 °C
CCN(CC)Cc1nc2cc(OC)c(OC)cc2c(-c2ccc(OC)c(OC)c2)c1C(C)=O | 146 to 148 °C
C#CCN(C)CC1=Cc2ccccc2Oc2ccccc21 | 66 to 67 °C
CS(=O)(=O)Nn1c(=O)[nH]c2cc(C(F)(F)F)c(CCCO)cc2c1=O | 243 to 247 °C
COc1ccc(Cn2nc(-n3cnn(Cc4ccc(F)cc4)c3=O)cc2C(=O)O)cc1 | 205 to 207 °C
CC#CCOc1ccc(S(=O)(=O)NC(C(=O)O)c2ccc(OCCN3CCCC3)cc2)cc1 (configuration not stated) | 245 to 247 °C
CC(Cc1ccc(O)cc1)NCC(O)c1cc2ccccc2o1 (configuration not stated) | 135 to 138 °C

Compound | melting point
CCCCOC(=O)CCC(C)(c1ccc(O)c(C(C)(C)C)c1)c1ccc(O)c(C(C)(C)C)c1 | 123 °C
O=[N+]([O-])c1ccc(Br)cc1O | 40 to 42 °C
O=C(O)c1cc(Br)cc([N+](=O)[O-])c1Br | 225 to 229 °C
C=CC1=C(C(=O)O)C(C(F)(F)F)Oc2ccc(Cl)cc21 (configuration not stated) | 143 to 145 °C
CC(Oc1ccc([N+](=O)[O-])cc1)c1c(F)ccc(F)c1F (configuration not stated) | 120 °C
Fc1ccc(Nc2ncnc3[nH]ccc23)cc1Cl | 274 to 275 °C
Cc1ccc2[nH]c(=O)c(-c3ccccc3)cc2c1 | 212 to 213 °C
O=C(O)c1ccc(COCc2csc3nc(C(=O)NCc4ccc(Cl)c(Cl)c4)[nH]c(=O)c23)cc1 | 252 to 253 °C
Cc1cccnc1CCOc1ccc(NC(=O)N(C)C)cc1 | 123 to 125 °C
O=C(NC(=O)c1c(F)cccc1F)Nc1cc(Cl)c(Cl)c(Cl)c1 | 231 to 232 °C
COCCn1nc2c(N)nc3ccccc3c2c1CC(C)(C)C(N)=O | 225 to 226 °C
Cc1cc(S)c(C)c(C)c1O | 86 °C
Cc1ccc(Cc2ccc(-c3cnn4c(O)ncnc34)cc2)cc1 | 285 to 292 °C
CN(CCO)C(=O)Nc1ccc2c(c1Cl)C(c1ccccc1F)=NCC(=O)N2C | 218 to 220 °C
Nc1ncc(-c2ccc(F)cc2F)nc1C(=O)Nc1cccnc1 | 232 to 234 °C
COc1ccc2[nH]cc(C)c2c1OCc1ccccc1 | 60 to 61 °C
CC(C)CC(NC(=O)C(Cc1c[nH]c2ccccc12)NC(=O)OC(C)(C)C)C(=O)NCCC(=O)CCl (configuration not stated) | 79 to 81 °C
c1ccc(COc2ccc3ccc(OCc4ccccc4)cc3c2)cc1 | 161 °C

The next lines start with the values.

melting point | Compound
180 to 185 °C | CC(C)c1cc2n(Cc3ccccc3)cc(C(=O)O)c(=O)n2n1
100 to 101 °C | COc1ccc(C(=O)OC2C(OC)C=C(C)C(=O)CC2(C)C)cc1 (configuration not stated)
74 °C | CCCCCC1CCC(c2ccc(-c3cc(F)c(C(F)(F)Oc4cc(F)c(C(F)(F)F)c(F)c4)c(F)c3)c(F)c2)CC1 (configuration not stated)
150 to 152 °C | COc1ccc(C(=O)OC2C(O)C=C(C)C(=O)CC2(C)C)cc1OC (configuration not stated)
104 to 108 °C | CN1CC(N(C(=O)c2ccc(Cl)cc2)c2ccccc2)CN1C
114 to 115 °C | O=c1n(CCCC2CCCCC2)nnn1-c1ccc(S(=O)(=O)Cl)cc1
159 to 161 °C | O=C(c1cccs1)c1cnn2c(-c3cccc(NC(=O)C4CCNCC4)c3)ccnc12
184 to 186 °C | CN1CCOc2cc(O)c(C3(O)C(=O)N(Cc4ccc(C(F)(F)F)o4)c4ccccc43)cc21 (configuration not stated)
194 to 196 °C | Clc1cccc(/C=C/[C@H]2CCCN2c2ncnc3[nH]cnc23)c1
176 °C | CN(C)CCCn1c(=O)c(C#N)c(N2CCN(C(=O)c3cccs3)CC2)c2cccnc21
90 to 92 °C | CCCCCS(=O)(=O)NC(=O)/C=C/c1ccc(OCCC2(C)OCCO2)cc1Oc1ncc(C(F)(F)F)cc1Cl
198 to 201 °C | C=Cc1cccc2c1-c1ccc3c(c1C(C1(C)CC=CCC1)O2)C(C)=CC(C)(C)N3 (configuration not stated)
124 to 125 °C | O=C(C1=Cc2ccccc2C1)C12CC3CC(CC(C3)C1)C2
162 °C | COc1nc2cc(Br)c3c(c2nc1OC)CCN(C)C3
142 to 145 °C | C[C@H]1C=CC2=C[C@@H](O)C[C@H](OC(=O)C(C)(C)Oc3ccc(F)cc3)[C@@H]2[C@H]1CC[C@@H]1C[C@@H](O)CC(=O)O1
220 to 221 °C | C/C(=N\O)[C@H]1CC[C@H]2[C@@H]3CCC4=CC(=O)CC[C@]4(C)[C@H]3CC[C@]12C
123 °C | O=C(COc1ccccc1)NC1C(=O)NC1SCC(=O)C1CCCS1 (mixture of isomers)
212 to 215 °C | Cc1ccc(CC2CCN(C(=O)CNc3ccc4[nH]c(=O)oc4c3)CC2)cc1
222 to 223 °C | CC(=S)NC[C@H]1CN(c2ccc(N3CCN(c4nnc(C)s4)CC3)c(F)c2)C(=O)O1
125 to 126 °C | CCOC(=O)C1=CC2(CCC1S(=O)(=O)Nc1ccc(F)cc1Cl)CC2 (configuration not stated)

melting point | Compound
122 to 124 °C | CCOC(=O)c1sc2nc(C)c(CC)c(=O)n2c1C
194 to 195 °C | CC(=O)Nc1cccc(C(=O)NC(C)(C)C)c1
94 °C | N#Cc1ncc(F)cc1OC1SCC(O)C(O)C1O (configuration not stated)
140 to 160 °C | O=C1C=C(c2ccccc2)CC(C(=O)O)C1 (configuration not stated)
84 to 101 °C | COc1cc2c(cc1Nc1ncc(Cl)c(Nc3ccccc3S(=O)(=O)N(C)C)n1)CCN(CCS(C)(=O)=O)CC2
36 to 58 °C | CCc1cc2c(SCC(=O)OC)ncnc2s1
133 to 140 °C | C[C@@H]1NC(=O)C[C@@]1(O)C1CC1
90 to 91 °C | CC(=O)COc1ccc(Cl)cc1C(=O)O
78 to 80 °C | COC(=O)c1n[nH]c(C(C)C)c1[N+](=O)[O-]
170 to 171 °C | COC(=O)CCc1ccccc1CC1C2CCC(O2)C1c1nc(C(=O)CCCCCC2CCCCC2)co1 (configuration not stated)
183 to 188 °C | CC(=O)Nc1cccc(-c2cnc(N(C)C)nc2)c1
146 to 148 °C | Cn1c(=S)ccn(C2OC(CO)C(O)C2O)c1=O (configuration not stated)
67 to 69 °C | CC1=C(C(=O)CS(=O)(=O)NC(C)C)C(c2cccc([N+](=O)[O-])c2)C(C(=O)OC(C)C)=C(C)N1C (configuration not stated)
138 to 141 °C | CC(Oc1ccccc1C(C)C)C(=O)OC1CC(O)C=C2C=CC(C)C(CCC3CC(O)CC(=O)O3)C21 (mixture of isomers)
134 to 136 °C | O=C(NC1CC1)c1ccc(-c2ccc(C(CC3CCOCC3)c3ccc(S(=O)(=O)C4CC4)cc3)[nH]2)nc1 (configuration not stated)
188 to 192 °C | Cc1ccc(C(=O)O)c(Nc2cc(C)nn2C)c1
123 to 124 °C | CCOC(=O)C(CC(=O)c1cc(F)ccc1OC)(NC(C)=O)C(=O)OCC
179 to 180 °C | COCCn1c(=O)ccc2cnc(Nc3ccccc3)nc21
106 to 108 °C | CC(=O)C(C(=O)c1ccccc1)=C1CCCN1
